Source: patent US20170029388A1, “Treatment of Neurodegenerative Diseases with Asparagine Endopeptidase (AEP) Inhibitors and Compositions Related Thereto” (INTERCONTINENTAL GREAT BRANDS LLC, priority 2014, published 2017)

What was measured:
CYP3A = test: CYP inhibition screening, CYP3A-Testosterone; assay type: in vitro ADME
CYP2D6 = CYP2D6 (Homo sapiens, UniProt P10635); test: CYP inhibition screening, CYP2D6; assay type: in vitro ADME
CYP2C19 = CYP2C19 (Homo sapiens, UniProt P33261); test: CYP inhibition screening, CYP2C19; assay type: in vitro ADME
AEP [1] = target: T1, AEP (Homo sapiens, UniProt Q99538); test: Time course inactivation assays (progress curves); assay type: biochemical
T1 construct: tested with purified active AEP, IC50 values for the top 8 candidates were found; purchased Sino Biological
T1 sequence (Q99538 18-323 limits assumed): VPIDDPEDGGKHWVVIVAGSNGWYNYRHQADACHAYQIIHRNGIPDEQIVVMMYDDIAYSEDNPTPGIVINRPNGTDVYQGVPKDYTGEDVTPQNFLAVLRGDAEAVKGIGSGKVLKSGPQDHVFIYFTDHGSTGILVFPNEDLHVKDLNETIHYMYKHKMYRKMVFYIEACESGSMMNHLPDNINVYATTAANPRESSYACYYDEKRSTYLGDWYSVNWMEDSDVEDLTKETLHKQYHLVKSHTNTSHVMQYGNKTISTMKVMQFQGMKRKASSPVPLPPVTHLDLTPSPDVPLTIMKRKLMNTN
Protocol: KI values for each inhibitor were determined by global fits to the competitive inhibition equation. C. Time course inactivation assays were used to generate progress curves, depicting product formation as a function of time. […] E. Time course inactivation assays were used to generate progress curves, depicting product formation as a function of time. Pseudo first-order rate constants were obtained at each concentration of compound BB1. F. Re-plot of the pseudo first-order rate constants, kobs, vs. the concentration of compound BB1.
To continue to assess the mechanism utilized by the compounds to inhibit AEP, the inhibition kinetics were determined for compound, 11, as well as compound BB1, in an attempt to confirm that the thiol moiety is competitively inhibiting the enzyme. […] The resulting Michaelis-Menten plots for each compound seem be indicative of competitive inhibition. […] Since BB1 contains a thiol group, it can form a disulfide bond with the active-site cysteine of AEP. […] Additionally, plotting the pseudo-first-order rate constants of inhibition, kobs, which were determined from the progress curves, yielded a hyperbolic curve, consistent with a two-step mechanism of inactivation (FIG. 6D). […] However, the kobs versus inhibitor concentration plot yielded a straight line, maybe due to the rapid disulfide formation reaction (FIG. 6F).
Progress curves were generated by incubating 5 μM Z-AAN-AMC and the specified concentration of inhibitor in assay buffer at 37° C. for 10 min. The reaction was initiated by the addition of 50 nM AEP and quenched after 10 min. The concentration of the product was determined from an AMC standard curve and the data was fit by nonlinear regression. Since the curves were nonlinear, they were fit to equation 5, using the GraFit version 5.0.11 software package, […]
[Product]=νi(1−e^−kobs.app*t)/kobs.app (eq 5), where νi is the initial velocity, kobs.app is the apparent pseudo-first order rate constant for inactivation, and t is time. […]

[2] = Liver microsomal stability, human; conditions: human liver microsomes; for Mean Remaining Parent (with NADPH): 30 min of incubation
AEP [3] = target: T1, AEP; test: DTT reversibility assay; assay type: biochemical; conditions: 5x IC50 of compound, 10 mM DTT or L-cysteine
Protocol: AEP was reacted with specified inhibitor, after 15 min 10 mM DTT or L-cysteine was added to the reaction and the fluorescent signal was read for an additional 15 min. At the end of the second 15 min incubation, the percentage of product formed in the presence of each compound was determined in comparison to the DMSO control reaction.
Although it is not intended that embodiments of this disclosure be limited by any particular mechanism, to gain additional insight into the mechanism utilized by the inhibitors for abrogation of AEP activity, their reversibility in the presence of free thiols was determined. The addition of a strong reducing agent, such as DTT, or a weaker reducing agent, L-cysteine, to an inhibited reaction can be used to out-compete the inhibitory agent and restore catalytic activity to an enzyme with an active-site thiol residue. Here, a similar approach was used by adding a reducing agent, either DTT or L-cysteine, to a reaction, in which AEP had been incubated with a specified inhibitor, in an attempt to reverse the effects of the inhibitor. […] For compounds BB1 and 38, this increase in enzymatic activity may be due to the reduction of a disulfide linkage between the inhibitor and the enzyme, since these compounds contain thiols. Compound 10 contains a thiocyanate and may undergo nucleophilic attack by the enzyme's active-site thiolate to form a thioimidate enzyme-inhibitor complex. Under acidic conditions, this complex is reducible by either a strong reducing agent, such as DTT, or the weaker L-cysteine.
Simultaneously, 10 mM (final concentration) dithiothreitol (DTT) or L-cysteine was added to each reaction and incubated for an additional 15 min. At the end of the second 15 min incubation time, the fluorescence was measured for each sample. The amount of product formed in the presence of DMSO was used to determine the percentage of AEP activity in the presence of each drug.

Sequence of CYP2C19 (P33261 whole entry): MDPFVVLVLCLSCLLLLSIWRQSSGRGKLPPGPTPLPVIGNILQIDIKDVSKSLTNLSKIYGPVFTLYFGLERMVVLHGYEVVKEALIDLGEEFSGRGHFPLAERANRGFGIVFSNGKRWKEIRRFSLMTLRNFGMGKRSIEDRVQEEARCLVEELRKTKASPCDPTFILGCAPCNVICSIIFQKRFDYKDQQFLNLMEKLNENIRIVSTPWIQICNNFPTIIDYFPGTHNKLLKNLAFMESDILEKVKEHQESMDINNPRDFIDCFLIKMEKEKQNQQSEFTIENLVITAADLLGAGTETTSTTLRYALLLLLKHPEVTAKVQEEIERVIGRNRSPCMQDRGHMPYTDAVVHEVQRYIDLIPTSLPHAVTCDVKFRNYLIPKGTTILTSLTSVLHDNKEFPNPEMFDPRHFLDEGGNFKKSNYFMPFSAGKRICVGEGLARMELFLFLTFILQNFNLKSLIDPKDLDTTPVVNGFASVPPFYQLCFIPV
Sequence of CYP2D6 (P10635 whole entry): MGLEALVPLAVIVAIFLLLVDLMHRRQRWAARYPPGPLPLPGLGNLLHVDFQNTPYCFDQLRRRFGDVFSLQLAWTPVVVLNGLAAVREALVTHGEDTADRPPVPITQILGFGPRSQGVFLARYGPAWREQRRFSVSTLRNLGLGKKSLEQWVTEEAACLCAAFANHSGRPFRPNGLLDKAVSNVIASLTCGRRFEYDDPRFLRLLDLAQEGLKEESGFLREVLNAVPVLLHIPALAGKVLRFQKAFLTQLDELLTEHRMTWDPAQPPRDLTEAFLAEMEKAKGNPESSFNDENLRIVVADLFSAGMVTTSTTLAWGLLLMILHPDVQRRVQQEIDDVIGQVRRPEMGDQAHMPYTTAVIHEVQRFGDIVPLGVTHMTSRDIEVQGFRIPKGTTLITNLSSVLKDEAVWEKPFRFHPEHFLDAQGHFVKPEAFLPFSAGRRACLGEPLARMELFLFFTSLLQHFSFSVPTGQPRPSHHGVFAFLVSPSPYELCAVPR

| SMILES | CYP inhibition, CYP3A-Testosterone (CYP3A; test concentration 3 μM) | CYP inhibition, CYP3A-Testosterone (CYP3A; test concentration 10 μM) | CYP inhibition, CYP2D6 (CYP2D6; test concentration 3 μM) | CYP inhibition, CYP2D6 (CYP2D6; test concentration 10 μM) | CYP inhibition, CYP2C19 (CYP2C19; test concentration 3 μM) | CYP inhibition, CYP2C19 (CYP2C19; test concentration 10 μM) | type of inactivation from progress curves (AEP [1]) | Mean Remaining Parent (NADPH-free) [2] | Mean Remaining Parent (with NADPH) [2] | AEP activity after addition of reducing agent (reversibility) (AEP [3]) | second-order rate constant of inhibition, kinact/KI (AEP [1]; slope of kobs versus inhibitor concentration) |
| --- | --- | --- | --- | --- | --- | --- | --- | --- | --- | --- | --- |
| Nc1ccc(N2CCOCC2)c2nonc12 [Compound 11] | 4.1% | 21.6% | 7.8% | 21.9% | 4.4% | 6.8% | irreversibly inactivates AEP | 93% | 76% | – | – |
| Cn1c(=O)[nH]c(=O)c2c1nc(S)n2CC(O)COc1ccc(Cl)cc1 (stereo not drawn) [Compound 38] | −6.0% | 2.4% | −5.4% | 0.9% | −12.0% | 9.5% | – | 107% | 88% | regained a substantial amount of activity | – |
| Sc1nnc(Nc2ccccc2)s1 [Compound BB1] | – | – | – | – | – | – | slow-binding inhibitor | – | – | regained a substantial amount of activity | 55000 M⁻¹ s⁻¹ |
